Data set [1] in a line: Dynamic light scattering (DLS) size distribution of coacervates. The format is physicochemical. The conditions noted are these: phosphate buffer pH 7.4; for Temperature-dependent particle size by DLS (in words): 10 to 50 ℃ in 10 ℃ steps, peptide concentrations as in Fig. 3 (2.0-50 mg/mL); for Hydrodynamic diameter (DLS): peptide 10 mg/mL, filtered 0.2 µm. Here is the method:
The distribution of the particle size in the truncated ELP analogue solution was analyzed via DLS using Zetasizernano ZS (Malvern Instruments Ltd., Worcestershire, U.K.) in a measurement cell ZEN0112 (Malvern Instruments Ltd.)[33]. Peptide samples of different concentrations (2.0, 10, 20, 30, or 50 mg/mL) were prepared by dissolving each peptide in phosphate buffer (27.4 mM Na2HPO4, 17.8 mM NaH2PO4, pH 7.4) and filtered using the Millex-LG filter (pore size 0.2 µm, Merck Millipore) before measurement. DLS analysis was performed by increasing the temperature at 10 ℃ intervals from 10 to 50 ℃. Measurement duration was selected automatically. Parameter dataset “protein” (dataset: refractive index, 1.450; absorption, 0.001) was used as the material parameter, and parameter dataset “water” (dataset: refractive index, 1.330; viscosity, 0.8872) was chosen as the dispersant parameter. Attenuation was selected automatically. Each concentration was measured at least three times.

Data set [2] can be described thus: Optical microscopy of peptide aggregates with image analysis of particle size. The format is physicochemical. The conditions noted are these: peptide 10 mg/mL, phosphate buffer pH 7.4. Here is the method:
The morphology of the coacervates of (FPGVG)4, (FPGV)4, and (FPG)4 was observed using optical microscopy. Light field observation was performed using a Leica DM IL LED microscope (Leica Microsystems CMS, Wetzlar, Germany) equipped with HI PLAN 40 × (Leica Microsystems CMS) and HC PLAN 10 × (Leica Microsystems CMS) objectives. Each peptide was dissolved in phosphate buffer (27.4 mM Na2HPO4, 17.8 mM NaH2PO4, at pH 7.4) to a concentration of 10 mg/mL and applied on a glass slide. Sample imaging was performed below and above the Tt of each peptide using a Thermo Plate TP-CHSQM (Tokai Hit Co., Ltd., Shizuoka, Japan). Sample images above Tt were taken 3 min after the sample reached the target temperature. The details of the image analysis is shown in the Supplementary Information file.
Size distribution of coacervates of ELP analogues formed above the Tt was analyzed using optical microscopy images of each peptide. Image analysis was performed using Image J/Fiji (NIH, USA), an open-source image analysis software.^2 Spatial calibration was carried out using […] in original images. The images of peptide coacervates were converted to a binary image via the menu command Image > Type > 8-bit. Using "analyze particle" command, the Feret diameters of the particles within the image were measured.

Data set [3] can be described thus: RP-UPLC retention time, used as measure of peptide hydrophobicity. The format is physicochemical. The conditions noted are these: RP-UPLC-MS; chromatographic. Here is the method: Peptide synthesis was carried out using the conventional solid-phase peptide synthesis procedure (see supplementary information). The synthesized peptides were purified using RP-HPLC. The purity and molecular weight of each peptide were confirmed using RP-UPLC-MS (Table S1 and Fig. S1). […]
Retention times of each peptide were determined by RP-UPLC-MS.

A short description of data set [4]: Turbidity measurement (phase transition temperature Tt, coacervation) in phosphate buffer pH 7.4. The format is physicochemical. Particulars: for Coacervation on heating (in words): peptide 50 mg/mL (69.5 mM); for Tt, phase transition temperature: heating 0.5 ℃/min from 5 ℃, mean ± SE, at least three measurements. How it is done: Turbidity measurements were performed in accordance with previous reports. The temperature-dependent self-assembling properties of the ELP analogues were evaluated using a JASCO V-660 spectral photometer (JASCO Co., Tokyo, Japan). Peptide sample solutions of different concentrations (2.0, 5.0, 10, 20, 30, or 50 mg/mL) were prepared by dissolving each peptide (except for AADAAC-(FPGV)n) in phosphate buffer (27.4 mM Na2HPO4, 17.8 mM NaH2PO4, pH 7.4). AADAAC-(FPGV)4 was dissolved in Tris–HCl buffer solution (50.0 mM Tris, at pH 8.4 or 50.0 mM Tris, 154 mM NaCl, at pH 8.4) to prepare sample solutions of a concentration of 0.5 or 10 mg/mL in the absence or presence of the equimolar amount of CdCl2. Turbidity was measured at 400 nm with increasing or decreasing temperature at a rate of 0.5 ℃/min from 5 ℃. The concentration of each sample solution was measured at least three times. The self-assembling property was described by the phase transition temperature (Tt), which is the temperature at which the turbidity of the solution reaches half the maximum value.

Experiment in data set [5]: as above
The format is physicochemical. Particulars: peptide 1.0 mg/mL, turbidity at 400 nm, heating 0.5 ℃/min from 5 ℃, half-maximal turbidity, mean ± SE, at least three measurements.

Data set [6] in a line: Colorimetric (xylenol orange) determination of Cd^2+ removal by peptide coacervation. The conditions noted are these: peptide 1.0 mg/mL, mean ± SE. Here is the method: Colorimetric analyses of cadmium ions (Cd^2+) were carried out to evaluate the number of metal ions absorbed into the coacervation phase of the peptides by using a spectral photometer (JASCO V-660)[45]. […] The peptide solutions were incubated at 4 ℃ for 3, 6, or 12 h and then at 60 ℃ for 1.5 h to separate into the lower coacervation phase from the upper equilibrium solution phase. After incubation, the peptide solution was immediately centrifuged at room temperature for 2 min (6,200 rpm) to remove aggregates. An aliquot of 333 µL of supernatant of the equilibrium solution phase was added to 600 µL of acetate buffer solution (pH5.4) including 67 μM of XO and incubated for 10 min. Subsequently, the concentrations of Cd^2+ or Zn^2+ were determined by measuring the absorbance at 575 nm or 550 nm, respectively, which corresponds to the absorbance of the metal-XO complex. The amount of metal ions absorbed in the peptide solution was determined by the calibration line, which was prepared in the same manner by using a series of standard CdCl2 or ZnCl2 aqueous solutions of known concentrations. The homogeneity of variances between the concentration of each metal ion in the supernatant and the control solution was confirmed using the F test. The statistical significance of the difference between the concentration of each metal ion in the supernatant and the control solution was determined using the Student's t-test. Results were considered statistically significant at P values of ≤ 0.01.

Where [7] appears, read: phosphate buffer pH 7.4, turbidity at 400 nm.
Where [8] appears, read: peptide 5.0 mg/mL, phosphate buffer pH 7.4, turbidity at 400 nm, half-maximal turbidity.
Setting [9] is: peptide 10 mg/mL, phosphate buffer (27.4 mM Na2HPO4, 17.8 mM NaH2PO4, pH 7.4), turbidity at 400 nm, Tt = temperature at half-maximal turbidity.
Setting [10] is: peptide 2.0 mg/mL, phosphate buffer pH 7.4, turbidity at 400 nm, half-maximal turbidity.

“And” between values parts separate entries of the source, which are not always exact repeats. Identical values can stand only once. Ends that are not written are not given here.

Experimental findings from article PMC9653453, “Development of truncated elastin-like peptide analogues with improved temperature-response and self-assembling properties” (Scientific Reports, 2022) are described below.

Regarding FPGFPGFPGFPG-NH2 [(FPG)4, H-(FPG)4-NH2], in data set [1], the “Temperature-dependent particle size by DLS (in words)” value (“Temperature-dependent particle size” below) was “formed irreversible aggregates in the aqueous solution at 10 °C”. Also, the “Morphology of aggregates (optical microscopy, in words)” value in data set [2] is recorded as “filamentous aggregates”. The “UPLC retention time (measure of hydrophobicity)” value (from here on “UPLC retention time”) in data set [3] stood at 1.835 min. For the same substance, in data set [4] (peptide 10 mg/mL, aqueous solution / phosphate buffer pH 7.4, with elapsed time without a temperature rise), the “Aggregation behaviour in aqueous solution (in words)” value is “formed irreversible aggregates”.

Turning to “FPGFPGV-NH2 [(FPG)(FPGV), H-(FPG)(FPGV)-NH2]”, in data set [1], the “Temperature-dependent particle size” value is recorded as “did not show micrometer-sized particles”. Besides, the “UPLC retention time” value in data set [3] stood at 0.760 min. Further, the “Coacervation on heating (in words)” value in data set [4] (setting [7]) is on record as “did not show coacervation”.

With FPGVFPG-NH2 [(FPGV)(FPG)], in data set [1], the “Temperature-dependent particle size” value was “did not show micrometer-sized particles”. The “UPLC retention time” value in data set [3] was 0.466 min. Besides, the “Coacervation on heating (in words)” value in data set [4] (setting [7]) is on record as “did not show coacervation”.

For FPGVFPGV-NH2 [(FPGV)2], the “Temperature-dependent particle size” value in data set [1] is on record as “did not show micrometer-sized particles”. Also, the “UPLC retention time” value in data set [3] is listed as 0.583 min. In addition, the “Turbidity change / coacervation on heating (in words)” value in data set [4] (peptide 30 mg/mL (36.7 mM), phosphate buffer pH 7.4, turbidity at 400 nm) is listed as “did not exhibit turbidity change”.

Consider FPGVFPGVFPGV-NH2 [(FPGV)3], for which, in data set [1], the “Temperature-dependent particle size” value is recorded as “formed sub-micron particles below Tt, which grew into micrometer-sized particles above Tt”. For the same substance, in data set [3], the “UPLC retention time” value stood at 1.739 min. In addition, the “Tt, phase transition temperature” value was determined as 71.6 ± 0.8 °C in data set [4] (setting [8]) and 45.2 ± 0.9 °C in data set [4] (setting [9]).

With FPGVFPGVFPGVFPGV-NH2 [(FPGV)4], in data set [1], the “Temperature-dependent particle size” value is “rapidly formed micrometer-sized particles at 20 °C”. Moreover, in data set [2], the “Morphology of aggregates (optical microscopy, in words)” value is given as “spherical aggregates”. For the same substance, the “Particle size of coacervates (optical microscopy image analysis, Feret diameter)” value in data set [2] (above Tt ((FPGVG)4 40 °C, (FPGV)4 25 °C), ImageJ/Fiji) is 2–4 µm. In addition, the “UPLC retention time” value in data set [3] stood at 2.431 min. Further, the “Tt, phase transition temperature” value in data set [5] was found to be 51.3 ± 0.1 °C; in data set [4] (setting [10]), 36.7 ± 0.3 °C; in data set [4] (setting [8]), 23.4 ± 0.1 °C; in data set [4] (setting [9]), 17.0 ± 0.2 °C. In addition, the “Concentration of metal ion in the supernatant” value in data set [6] (Cd^2+ (0.236 mM CdCl2), incubation 12 h at 4 ℃ then 60 ℃ 1.5 h, Tris-HCl (50.0 mM Tris, 599 mM NaCl, pH 8.0), at least three measurements) stood at 19.0 ± 0.97 ppm. For the same substance, in data set [6] (Cd^2+, incubation 12 h, versus control without peptide), the Removal efficiency was 27.2% and 27.2 ± 0.04%.

Consider “FPGVGFPGVGFPGVGFPGVGFPGVG-NH2 [(FPGVG)5, reference compound]”, for which the “Hydrodynamic diameter (DLS)” value in data set [1] (at 10 ℃, Zetasizer cumulant fit) was “approximately 3 nm”; in data set [1] (at temperatures above 20 ℃), 3–5 µm. In data set [3], the “UPLC retention time” value worked out at 2.691 min. Further, the “Tt, phase transition temperature” value was found to be 56.6 ± 1.3 °C in data set [5], 39.0 ± 0.2 °C in data set [4] (setting [10]), 25.6 ± 1.2 °C in data set [4] (setting [8]) and 20.5 ± 0.1 °C in data set [4] (setting [9]).

As for “VFPGVFPGVFPGVFPG-NH2 [(VFPG)4, H-(VFPG)n-NH2 (n = 4)]”, in data set [3], the “UPLC retention time” value was found to be 2.493 min. Further, the “Tt, phase transition temperature” value in data set [4] (setting [9]) is 45.3 ± 0.6 °C.
